Measurements published in paper PMC7100484 (Pharmaceutical Research, 2020).

Key:
[1] = test system: Semliki Forest; conditions: mouse, in vivo; cited from earlier work
[2] = not told; cited from earlier work
[3] = test system: EMCV; conditions: cited from earlier work
[4] = test system: mitochondrial potential; conditions: cited from earlier work
[5] = test system: fibroblasts; conditions: cited from earlier work
[6] = microsomes; cited from earlier work
[7] = molecular target: Human Viral RNA Sensor RIG-I (Homo sapiens, UniProt O95786); assay: biochemical; type: binding
[8] = test system: West Nile virus; conditions: 10 mg/kg; cited from earlier work
[9] = test system: MCF7 Cells; assay: cells; type: cell-based; conditions: Homo sapiens, MCF7, read-out: IC50, inhibition of total fluorescent intensity/cell of Lysotracker Red
[10] = test system: ZIKV; assay: microbe, parasite or virus in culture; type: cell-based; conditions: Zika virus
[11] = test system: Herpes simplex virus 1; conditions: 250 mg/kg oral doses for 7 days; cited from earlier work
[12] = test system: Encephalomyocarditis virus (EMCV); conditions: mouse, in vivo; cited from earlier work
[13] = test system: macrophages; conditions: macrophages from naive BALB/c mice; cited from earlier work
[14] = test system: respiratory tract infections; conditions: in vivo; cited from earlier work
[15] = test system: Mengo virus; conditions: mouse, in vivo; cited from earlier work
[16] = test system: Influenza A/Jap/305; conditions: mouse, in vivo; cited from earlier work
[17] = test system: Influenza B; conditions: mouse, in vivo; cited from earlier work
[18] = test system: cytokines and chemokines; conditions: mouse, in vivo; cited from earlier work
[19] = test system: interferon; conditions: in vivo, po; cited from earlier work

Chain of Human Viral RNA Sensor RIG-I (O95786 whole entry): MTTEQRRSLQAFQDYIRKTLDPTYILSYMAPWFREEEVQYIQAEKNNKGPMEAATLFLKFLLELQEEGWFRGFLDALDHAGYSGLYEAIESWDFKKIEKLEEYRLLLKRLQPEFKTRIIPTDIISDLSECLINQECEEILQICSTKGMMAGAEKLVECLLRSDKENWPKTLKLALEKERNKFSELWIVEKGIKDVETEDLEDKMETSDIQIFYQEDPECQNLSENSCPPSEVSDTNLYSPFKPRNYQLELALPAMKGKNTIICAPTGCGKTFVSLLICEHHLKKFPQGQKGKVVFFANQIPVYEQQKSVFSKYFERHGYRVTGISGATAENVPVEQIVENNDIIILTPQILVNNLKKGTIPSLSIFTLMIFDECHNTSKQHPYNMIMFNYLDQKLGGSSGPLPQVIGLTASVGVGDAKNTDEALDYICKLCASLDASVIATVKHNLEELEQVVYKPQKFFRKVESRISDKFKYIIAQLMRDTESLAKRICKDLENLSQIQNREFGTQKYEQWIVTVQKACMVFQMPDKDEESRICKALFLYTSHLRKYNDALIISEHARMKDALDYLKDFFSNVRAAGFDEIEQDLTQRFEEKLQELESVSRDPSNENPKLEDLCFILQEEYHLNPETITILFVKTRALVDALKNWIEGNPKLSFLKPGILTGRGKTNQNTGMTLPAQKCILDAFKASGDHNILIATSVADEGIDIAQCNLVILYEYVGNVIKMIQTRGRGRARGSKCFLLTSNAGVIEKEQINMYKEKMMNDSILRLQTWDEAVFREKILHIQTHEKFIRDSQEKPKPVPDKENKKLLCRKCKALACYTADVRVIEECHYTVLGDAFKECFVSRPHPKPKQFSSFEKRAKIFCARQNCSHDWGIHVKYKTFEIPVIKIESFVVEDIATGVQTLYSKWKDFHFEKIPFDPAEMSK

In the case of CCN(CC)CCOc1ccc2c(c1)C(=O)c1cc(OCCN(CC)CC)ccc1-2 [Tilorone, 2,7-Bis[2-(diethylamino)ethoxy]-9H-fluoren-9-one], the survival in mice [1] is given as 100% survival in mice at 250 mg/kg single oral dose, the “permeability (in words)” value [2] is given as “highly permeable” and the “drop of virus titer” value [3] is given as 1 log drop of virus titer at 25 mg/ml in vitro. For the same compound, the mitochondrial potential [4] was “rapid increase”, the ATP-dependent acidification [5] was “inhibited the ATP-dependent acidification” and the “lysosomal pH” value [5] was “increase lysosomal pH”. The “secretion of precursor forms of lysosomal enzymes” value [5] was “enhanced the secretion of precursor forms of lysosomal enzymes”, the “storage of sulfated glycosaminoglycans” value [5] was “induce the storage of sulfated glycosaminoglycans” and the “species-liver microsome stability relationship” value [6] was “increased in the order of guinea pig, non-human primate, mouse, followed by human”. The EC50 [7] was 500 µM, the lethality protection [8] was 46% lethality protection at 10 mg/kg and the IC50 [9] was about 4 µM. For the same compound, the EC50 [10] was 5.2 µM, the survival in mice [11] was 45% survival in mice at 250 mg/kg oral doses for 7 days and the survival in mice [12] was 80% survival in mice at 250 mg/kg single oral dose. For the same compound, the “in vivo secretion of IL-6, TNF-a and IL-12” value [13] was “increase in vivo secretion”, the prophylactic efficacy [14] was 72% and the survival in mice [15] was 80% survival in mice at 250 mg/kg single oral dose. The survival in mice [16] was 30% survival in mice at 250 mg/kg single oral dose, the survival in mice [17] was 50% survival in mice at 250 mg/kg single oral dose and the “levels of IL-6, IL-10, IL-12 (p40), IL-12 (p70), IL-17, Eotaxin, MCP-1, MIP-1B and RANTES” value [18] was “significantly higher levels”. For the same compound, the interferon induction [19] was “inducer of interferon”.
